How the values were obtained:
[1] = test system: mouse model of type 1 diabetes; assay: Insulin tolerance test (ITT) in STZ-induced mouse model of type 1 diabetes; type: in vivo, mice; conditions: FIG. 1C
Experimental: (§1) C57 male mice aged 4-6 weeks were used as experimental animals. After the mice were fasted for 10-12 hours, they were injected with 50 mg/kg of streptozotocin (STZ) intraperitoneally for 5 consecutive days. Fasting blood glucose levels of mice on the 6th and 10th days were measured to determine whether the induction was successful (the induction was considered successful when fasting blood glucose was greater than 11.1 mmol/L). The mice were applied to Group 2 to 6 in the following step 2). […]
One week after GTT, an insulin tolerance test (ITT) was carried out. […] The blood glucose of the mice before injection (0 min) and at 15 min, 30 min, 60 min and 120 min after injection were measured respectively.

[2] = test system: DB/DB mice (spontaneous type 2 diabetic mice); assay: Blood glucose of DB/DB mice after administration treatment; type: in vivo; conditions: CBD alone 50 mg/kg, intragastric, once a day
Experimental: In order to study the effect of combined use of CBD and metformin, adult DB/DB mice (spontaneous type 2 diabetic mice, purchased from Model Animal Center of Nanjing University) were randomly divided into 5 groups, with 6 mice in each group: • Group 1: control group, no treatment; • Group 2: CBD alone administration group (50 mg/kg); • Group 3: low-dose metformin group (100 mg/kg, calculated by referring to the lowest dose for human, and the dose for mice=9.1×the dose for human); • Group 4: low-dose metformin (100 mg/kg)+CBD (50 mg/kg) group; and • Group 5: high-dose metformin group (250 mg/kg, calculated by referring to the lowest dose for human, and the dose for mice=9.1×the dose for human).
Group 3 and Group 5 were both positive control groups of the treatment group, Group 3 was low-dose metformin group, and Group 5 was high-dose metformin group.
The administration routes of the above five groups were all intragastric administration, once a day
After 4 weeks of administration, blood glucose of mice in each group was measured.

[3] = test system: mouse lactic acidosis model; assay: Blood lactic acid concentration in mouse lactic acidosis model induced by metformin; type: in vivo, mice; conditions: FIG. 5
Experimental: ICR male mice aged 4-6 weeks were used as experimental animals. The mice were administrated by gavage with metformin (260 mg/kg) for induction for three times, with an interval of 12 hours.
The mice were randomly divided into seven groups with five mice in each group: • Group 1: control group, no treatment; • Group 2: given water by gavage every day; • Group 3: given CBD by gavage once a day, 50 mg/kg; • Group 4: given 260 mg/kg of metformin by gavage in the morning and evening on the first day, and 260 mg/kg of metformin by gavage in the next morning, and sampled at […] in the next day; • Group 5: given 260 mg/kg of metformin by gavage in the morning and evening on the first day, and 260 mg/kg of metformin by gavage in the next morning, given 50 mg/kg of CBD at the same time metformin was given by gavage, and sampled at […] in the next day. • Group 6: injected with 260 mg/kg of metformin by caudal vein every other one hour for four times, and sampled one hour after the fourth injection; and • Group 7: given 50 mg/kg of CBD by gavage half an hour before caudal vein injection, injected with 260 mg/kg of metformin by caudal vein half an hour later, once every other hour, four times in total, and sampled one hour after the fourth injection. […]

[4] = test system: mouse model of type 2 diabetes; assay: Insulin tolerance test (ITT) in STZ and high-fat feed mouse model of type 2 diabetes; type: in vivo, mice; conditions: CBD 50 mg/kg by gavage once a day; one month after administration; FIG. 2C
Experimental: (§2) C57 male mice aged 4-6 weeks were used as experimental animals. The mice were fed with high-fat feed. After the mice were fasted for 10-12 hours, they were injected with 50 mg/kg of streptozotocin (STZ) intraperitoneally for 5 consecutive days. […] The mice were applied to Group 2 to 8 in the following step 2).
(§3) High-fat feed was formed by adding 60% fat to normal feed.

[5] = test system: mouse model of type 2 diabetes; assay: Glucose tolerance test (GTT) in STZ and high-fat feed mouse model of type 2 diabetes; type: in vivo, mice; conditions: CBD 50 mg/kg by gavage once a day; one month after administration; FIG. 2B
Experimental: C57 male mice aged 4-6 weeks were used as experimental animals. The mice were fed with high-fat feed. After the mice were fasted for 10-12 hours, they were injected with 50 mg/kg of streptozotocin (STZ) intraperitoneally for 5 consecutive days. […] The mice were applied to Group 2 to 8 in the following step 2). High-fat feed was formed by adding 60% fat to normal feed. […] One month after administration (after the type 2 diabetes model was stabilized,), a glucose tolerance test (GTT) was carried out. The mice were fasted for 10 hours, and injected with 20% (w/w) glucose was intraperitoneally according to their body weights (10 μl/g).

[6] = test system: mouse diarrhea model; assay: Diarrhea index in mouse diarrhea model induced by Folium Sennae; type: in vivo, mice; conditions: days 1-7, FIG. 4A to 4G
Experimental: ICR female mice of 4-6 weeks old were used as experimental animals. The mice ate and drank normally, and were given 8% (w/w) Folium Sennae solution by gavage, 0.2 ml/mouse. Diarrhea index of the mice was counted every other one and a half hours for 6 hours. Folium Sennae was purchased from Tongrentang Pharmacy in Beijing. The 8% (w/w) Folium Sennae solution was prepared by boiling 8 parts by weight of Folium Sennae and 92 parts by weight of water in a conical flask for 10 min.
The mice were randomly divided into 7 groups with 10 mice in each group: • Group 1: the mice were given the same volume of water by gavage every day; • Group 2: the mice were given 150 mg/kg of metformin by gavage every day; • Group 3: the mice were given 50 mg/kg of CBD by gavage every day; • Group 4: the mice were given 8% Folium Sennae solution by gavage every day; • Group 5: the mice were given a mixed solution of 8% Folium Sennae solution and 150 mg/kg of metformin by gavage every day; • Group 6: the mice were given a mixed solution of 8% Folium Sennae solution and 50 mg/kg of CBD by gavage every day; and • Group 7: the mice were given a mixed solution of 8% Folium Sennae solution, 150 mg/kg of metformin and 50 mg/kg of CBD by gavage every day.
Every day after gavage, the diarrhea index of each mouse was counted every other one and a half hours, 4 times in total […].
Diarrhea index=loose stool rate*loose stool grade
• Diarrhea rate: the number of animals with loose stools in this group/the total number of animals in this group*100%; • Loose stool rate: the number of loose stools per animal/the total number of stools; and • Loose stool grade: the hardness of loose stool graded according to the size of stains on filter paper with loose stool, as shown in Table 1 below.

[7] = test system: patients with type 2 diabetes; assay: Fasting blood glucose and glycosylated hemoglobin in diabetic volunteers; type: in vivo, human; conditions: oral CBD 300 mg/day, after 8 weeks, three patients
Experimental: Every patient received oral CBD treatment at 300 mg/day for 8 weeks. Fasting blood glucose was measured at the 0th, 4th and 8th weeks. Glycosylated hemoglobin value was measured at the 0th and 8th weeks. The results are shown in FIG. 8A and FIG. 8B, respectively.

[8] = test system: mouse model of type 1 diabetes; assay: Fasting blood glucose in STZ-induced mouse model of type 1 diabetes; type: in vivo, mice; conditions: FIG. 1A; for fasting blood glucose: after 10 days
Experimental: C57 male mice aged 4-6 weeks were used as experimental animals. After the mice were fasted for 10-12 hours, they were injected with 50 mg/kg of streptozotocin (STZ) intraperitoneally for 5 consecutive days. Fasting blood glucose levels of mice on the 6th and 10th days were measured to determine whether the induction was successful (the induction was considered successful when fasting blood glucose was greater than 11.1 mmol/L). The mice were applied to Group 2 to 6 in the following step 2).
The mice were randomly divided into 6 groups with 10 mice in each group: • Group 1: blank control group, fed with normal feed and intraperitoneally injected with a buffer solution at a dose of 100 μl/mouse, once a day for 5 consecutive days; • wherein, the buffer solution was a citric acid buffer solution with a concentration of 0.1 mol/L and pH of 4.2 and was sterilized by suction filtration. • Group 2: diabetes model group, fed with normal feed and intraperitoneally injected with streptozotocin; • Group 3: CBD prevention group, fed with normal feed, intraperitoneally injected with streptozotocin, and given CBD by gavage from the first day of induction, 50 mg/kg, once a day; • Group 4: CBD treatment group, fed with normal feed, intraperitoneally injected with streptozotocin, and given CBD by gavage after successful induction, 50 mg/kg, once a day; • Group 5: positive drug control group, fed with normal feed, intraperitoneally injected with streptozotocin, and injected with insulin after successful induction, 0.2 U/kg, once a day; and • Group 6: metformin group, fed with normal feed, intraperitoneally injected with streptozotocin, and given metformin by gavage after successful induction, 50 mg/kg, once a day.
(§4) Fasting blood glucose of mice in each group was detected every other three to four weeks; after one month of administration (the model was stable), a glucose tolerance test (GTT) was carried out. […] The blood glucose of the mice before injection (0 min) and at 15 min, 30 min, 60 min and 120 min after injection were measured respectively.

[9] = test system: mouse model of type 2 diabetes; assay: Fasting blood glucose in STZ and high-fat feed mouse model of type 2 diabetes; type: in vivo, mice
Experimental: as §2, §3

[10] = test system: mouse model of type 1 diabetes; assay: Glucose tolerance test (GTT) in STZ-induced mouse model of type 1 diabetes; type: in vivo, mice; conditions: FIG. 1B
Experimental: as §1, §4

[11] = test system: mouse model of chronic renal failure induced by adriamycin; assay: Urinary total protein in mice with chronic renal failure induced by adriamycin; type: in vivo; conditions: CBD 50 mg/kg by gavage once a day; urine on the 14th day of nephropathy induction; FIG. 7
Experimental: A mouse model of chronic renal failure induced by adriamycin was constructed according to a conventional method of inducing kidney injury. After CBD treatment for 14 days, urinary total protein level was measured. The specific method is as follows: Kunming white male mice aged 4-6 weeks were used as experimental animals. After the mice were fasted for 10-12 hours, they were injected with 50 mg/kg of streptozotocin (STZ) intraperitoneally for 5 consecutive days. […] On the 7th day after diabetes induction, the mice in the nephropathy group were injected with adriamycin at 10 mg/kg by caudal vein. The mice were applied to the Group 3 to 6 in the following step 2). The experimental animals were randomly divided into 6 groups with 10 animals in each group: • Group 1: control group, fed with normal saline; • Group 2: diabetes group; • Group 3: diabetes+CBD group; given CBD by gavage, 50 mg/kg, once a day; • Group 4: diabetes+adriamycin group; • Group 5: diabetes+adriamycin+CBD group; given CBD by gavage, 50 mg/kg, once a day; and • Group 6: diabetes+adriamycin+metformin group; given metformin by gavage, 50 mg/kg, once a day. After successfully inducing the mouse diabetes model, the mice were injected with adriamycin through caudal vein to induce nephropathy model. Urine was collected from the mice on the 14th day of the induction of nephropathy model, and urinary total protein was detected.

[12] = test system: diabetes model mice fed with high-fat feed; assay: Serum lipid and insulin levels in mice induced by STZ and high-fat feed; type: in vivo; conditions: metformin alone, 100 or 250 mg/kg by gavage once a day; two months of treatment; FIG. 6E
Experimental: After the mice were fasted for 10-12 hours, they were injected with 50 mg/kg of streptozotocin (STZ) intraperitoneally for 5 consecutive days.

SMILES: C=C(C)[C@@H]1CCC(C)=C[C@H]1c1c(O)cc(CCCCC)cc1O [CBD, Cannabidiol]
- ITT, CBD prevention group compared with CBD treatment group ([1]; 50 mg/kg by gavage once a day): the CBD prevention group had a better effect than the CBD treatment group
- insulin tolerance test (ITT), sensitivity to insulin ([1]; CBD 50 mg/kg by gavage once a day, one week after GTT): significantly enhance sensitivity of the mice to insulin
- blood glucose [2]: reduce blood glucose
- lactic acid concentration in blood ([3]; CBD 50 mg/kg by gavage with metformin 260 mg/kg (gavage or caudal vein)): significantly inhibit the increase of lactic acid in blood induced by metformin
- insulin tolerance test (ITT), sensitivity to insulin [4]: improve sensitivity of the mice to insulin
- glucose tolerance test (GTT), regulation of glucose [5]: improve regulation of glucose in the mice induced by STZ and high-fat feed
- diarrhea index, diarrhea induced and aggravated by metformin ([6]; CBD 50 mg/kg with 8% Folium Sennae solution and 150 mg/kg metformin by gavage every day): significantly alleviate
- diarrhea index, diarrhea induced by Folium Sennae ([6]; CBD 50 mg/kg with 8% Folium Sennae solution by gavage every day): significantly alleviate
- fasting blood glucose ([7]; FIG. 8A): decreased significantly
- glycosylated hemoglobin ([7]; FIG. 8B): improved significantly
- fasting blood glucose, CBD prevention group compared with CBD treatment group ([8]; 50 mg/kg by gavage once a day): the CBD prevention group had a better effect than the CBD treatment group
- fasting blood glucose ([8]; CBD prevention group: 50 mg/kg by gavage once a day from the first day of STZ induction): significantly reduce the blood glucose increase caused by STZ
- fasting blood glucose ([8]; CBD treatment group: 50 mg/kg by gavage once a day after successful induction): significantly reduce the blood glucose increase caused by STZ
- CBD prevention group compared with CBD treatment group (fasting blood glucose, GTT, ITT) ([9]; 50 mg/kg by gavage once a day, FIG. 2A to FIG. 2C): the CBD prevention group had a better effect than the CBD treatment group
- fasting blood glucose ([9]; CBD 50 mg/kg by gavage once a day, FIG. 2A): significantly reduce the blood glucose elevation induced by STZ and high-fat feed
- GTT, CBD prevention group compared with CBD treatment group ([10]; 50 mg/kg by gavage once a day): the CBD prevention group had a better effect than the CBD treatment group
- glucose tolerance test (GTT), regulation of glucose ([10]; CBD 50 mg/kg by gavage once a day, after one month of administration): significantly enhance regulation of glucose in the mice
- urinary total protein level [11]: significantly reduce urinary total protein level

SMILES: CN(C)C(=N)N=C(N)N [metformin, Metformin, reference compound]
- lactic acid concentration in blood ([3]; metformin 260 mg/kg, by gavage three times or by caudal vein four times): induce lactic acidemia
- diarrhea index ([6]; metformin 150 mg/kg with 8% Folium Sennae solution by gavage every day): aggravate diarrhea induced by Folium Sennae
- insulin level in serum (insulin secretion) [12]: could not increase insulin secretion

— patent US20250000879A1, “PHARMACEUTICAL COMPOSITION FOR PREVENTING DIABETES AND USE THEREOF” (HANYI BIO-TECHNOLOGY (BEIJING) CO., LTD., priority 2018, published 2025)
